Results: article PMC7382816 (BMC Pharmacology & Toxicology, 2020)
Read-outs that look alike come from different tables or passages of the source.

Legend:
[1] = Single-dose pharmacokinetics in healthy volunteers under fasting and fed (high-fat breakfast) conditions, plasma concentrations by HPLC-MS, non-compartmental analysis; format: in vivo, human; set-up: Ke: unit not given here
Source text: The bioequivalence clinical trials were phase I, randomized, open-label, crossover, single-centre, with two periods separated by a 7-day washout stage. Subjects were randomised to one of the two treatment sequences, RT or TR where R was the reference formulation and T was the test formulation. Each of the clinical trial was crossover for evaluation of a test formulation compared to a reference formulation either under fed or fasting conditions. […] The treatments were allocated in a balanced manner on every inclusion day (blocks of 4 subjects). Our study adheres to CONSORT guidelines. […] Sample processing, genotyping for CYP2C19 and drug quantification were performed according to Román et al. […] Pharmacokinetic parameters were estimated from the plasma concentration–time data by non-compartmental analysis (WinNonlin Professional, version 2.0., Pharsight Corporation, USA) as reported by Román et al. […] WinNonLin Professional software version 2.0 was used for the statistical analysis. Pharmacokinetic parameters were log-transformed, and AUC and Cmax were adjusted for dose and weight. The values of pharmacokinetic parameters were expressed as mean ± standard deviation.

[2] = review; ref [26] Swan et al.; cited from earlier work
[3] = Fed (high-fat breakfast), all subjects, single oral dose, mean ± SD
[4] = both sexes, human, plasma, oral, only CYP2C19*1/*1 subjects, Fast, men and women, mean ± SD
[5] = both sexes, human, plasma, oral, only CYP2C19*1/*1 subjects, Fed, men and women, mean ± SD
[6] = both sexes, human, plasma, po, Fast, all subjects, single oral dose, mean ± SD
[7] = both sexes, human, plasma, po, Fed (high-fat breakfast), all subjects, single oral dose, mean ± SD
[8] = female, human, plasma, oral, only CYP2C19*1/*1 subjects, Fast, women, mean ± SD
[9] = female, human, plasma, oral, only CYP2C19*1/*1 subjects, Fed, women, mean ± SD
[10] = female, human, plasma, po, Fast, women, single oral dose, mean ± SD
[11] = female, human, plasma, po, Fed, women, single oral dose, mean ± SD
[12] = male, human, plasma, oral, only CYP2C19*1/*1 subjects, Fast, men, mean ± SD
[13] = male, human, plasma, oral, only CYP2C19*1/*1 subjects, Fed, men, mean ± SD
[14] = male, human, plasma, po, Fast, men, single oral dose, mean ± SD
[15] = male, human, plasma, po, Fed, men, single oral dose, mean ± SD

COCCCOc1ccnc(C[S+]([O-])c2nc3ccccc3[nH]2)c1C (centres unmarked) [Rabeprazole, rabeprazole]
Ke ([1]; Fast, all subjects, single oral dose, mean ± SD): 0.60 ± 0.20
Ke ([1]; Fast, men, single oral dose, mean ± SD): 0.64 ± 0.20
Ke ([1]; Fast, women, single oral dose, mean ± SD): 0.56 ± 0.20
Cmax [1, 3]: 675.8 ± 218.8 ng/mL
Ke [1, 3]: 0.42 ± 0.22
Ke ([1]; Fed, men, single oral dose, mean ± SD): 0.38 ± 0.17
Ke ([1]; Fed, women, single oral dose, mean ± SD): 0.48 ± 0.27
AUC(0-inf) [1, 4]: 901 ± 235 ng·h/mL
CL/F [1, 4]: 6.17 mL/min/kg
Vd/F [1, 4]: 0.6 ± 0.11 L/kg
half-life [1, 4]: 1.3 ± 0.6 h
Cmax ([1]; both sexes, human, plasma, oral, only CYP2C19*1/*1 subjects, Fast, men and women, mean ± SD, read-out: Cmax): 536 ± 138 ng/mL
Tmax ([1]; both sexes, human, plasma, oral, only CYP2C19*1/*1 subjects, Fast, men and women, mean ± SD, read-out: Tmax): 3.9 ± 0.8 h
AUC(0-inf) [1, 5]: 969 ± 388 ng·h/mL
CL/F [1, 5]: 6.33 mL/min/kg
Vd/F [1, 5]: 0.92 ± 0.34 L/kg
half-life [1, 5]: 2 ± 0.9 h
Cmax ([1]; both sexes, human, plasma, oral, only CYP2C19*1/*1 subjects, Fed, men and women, mean ± SD, read-out: Cmax): 606 ± 207 ng/mL
Tmax ([1]; both sexes, human, plasma, oral, only CYP2C19*1/*1 subjects, Fed, men and women, mean ± SD, read-out: Tmax): 9.1 ± 3.3 h
Tmax ([1]; both sexes, human, plasma, oral, under fasting conditions, range among subjects, read-out: Tmax range): 2 to 7 h
Tmax ([1]; both sexes, human, plasma, oral, under fed conditions, range among subjects, read-out: Tmax range): 3 to 20 h
AUC(0-inf) [1, 6]: 972 ± 361 ng·h/mL
CL/F [1, 6]: 5.83 mL/min/kg
Vd/F [1, 6]: 0.6 ± 0.17 L/kg
half-life [1, 6]: 1.3 ± 0.5 h
Cmax ([1]; both sexes, human, plasma, po, Fast, all subjects, single oral dose, mean ± SD, read-out: Cmax): 556 ± 176 ng/mL
Tmax ([1]; both sexes, human, plasma, po, Fast, all subjects, single oral dose, mean ± SD, read-out: Tmax): 3.7 ± 0.9 h
AUC(0-inf) [1, 7]: 1050 ± 382 ng·h/mL
CL/F [1, 7]: 5.67 mL/min/kg
Vd/F [1, 7]: 0.91 ± 0.45 L/kg
half-life [1, 7]: 2.2 ± 1.3 h
Tmax ([1]; both sexes, human, plasma, po, Fed (high-fat breakfast), all subjects, single oral dose, mean ± SD, read-out: Tmax): 7.2 ± 2.6 h
difference in AUC between men and women ([1]; effect of sex (CYP2C19*1/*1 subjects, fed conditions)): around 5%
Cmax higher under fed conditions ([1]; fed vs fasting, all subjects): 21%
Delay of mean Tmax (absorption) by food ([1]; fed vs fasting, all subjects): about 3.5 h
half-life higher under fed conditions ([1]; fed vs fasting, all subjects): 66%
Delay of Tmax by food ([1]; fed vs fasting, only subjects with CYP2C19*1/*1): 5.2 h
AUC(0-inf) [1, 8]: 932 ± 172 ng·h/mL
CL/F [1, 8]: 6.83 mL/min/kg
Vd/F [1, 8]: 0.61 ± 0.12 L/kg
half-life [1, 8]: 1.1 ± 0.2 h
Cmax ([1]; female, human, plasma, oral, only CYP2C19*1/*1 subjects, Fast, women, mean ± SD, read-out: Cmax): 560 ± 136 ng/mL
Tmax ([1]; female, human, plasma, oral, only CYP2C19*1/*1 subjects, Fast, women, mean ± SD, read-out: Tmax): 3.8 ± 0.7 h
AUC(0-inf) [1, 9]: 944 ± 470 ng·h/mL
CL/F [1, 9]: 7.5 mL/min/kg
Vd/F [1, 9]: 0.85 ± 0.32 L/kg
half-life [1, 9]: 1.5 ± 0.9 h
Cmax ([1]; female, human, plasma, oral, only CYP2C19*1/*1 subjects, Fed, women, mean ± SD, read-out: Cmax): 634 ± 221 ng/mL
Tmax ([1]; female, human, plasma, oral, only CYP2C19*1/*1 subjects, Fed, women, mean ± SD, read-out: Tmax): 8.2 ± 0.6 h
AUC(0-inf) [1, 10]: 1120 ± 361 ng·h/mL
CL/F [1, 10]: 5.83 mL/min/kg
Vd/F [1, 10]: 0.65 ± 0.2 L/kg
half-life [1, 10]: 1.4 ± 0.5 h
Cmax ([1]; female, human, plasma, po, Fast, women, single oral dose, mean ± SD, read-out: Cmax): 638 ± 177 ng/mL
Tmax ([1]; female, human, plasma, po, Fast, women, single oral dose, mean ± SD, read-out: Tmax): 3.7 ± 0.9 h
AUC(0-inf) [1, 11]: 1050 ± 420 ng·h/mL
CL/F [1, 11]: 6.33 mL/min/kg
Vd/F [1, 11]: 0.92 ± 0.37 L/kg
half-life [1, 11]: 2 ± 1.3 h
Cmax ([1]; female, human, plasma, po, Fed, women, single oral dose, mean ± SD, read-out: Cmax): 728 ± 284 ng/mL
Tmax ([1]; female, human, plasma, po, Fed, women, single oral dose, mean ± SD, read-out: Tmax): 7.6 ± 2 h
AUC(0-inf) [1, 12]: 870 ± 296 ng·h/mL
CL/F [1, 12]: 5.5 mL/min/kg
Vd/F [1, 12]: 0.59 ± 0.1 L/kg
half-life [1, 12]: 1.5 ± 0.7 h
Cmax ([1]; male, human, plasma, oral, only CYP2C19*1/*1 subjects, Fast, men, mean ± SD, read-out: Cmax): 512 ± 147 ng/mL
Tmax ([1]; male, human, plasma, oral, only CYP2C19*1/*1 subjects, Fast, men, mean ± SD, read-out: Tmax): 3.9 ± 1 h
AUC(0-inf) [1, 13]: 1000 ± 323 ng·h/mL
CL/F [1, 13]: 5 mL/min/kg
Vd/F [1, 13]: 1.02 ± 0.39 L/kg
half-life [1, 13]: 2.5 ± 0.7 h
Cmax ([1]; male, human, plasma, oral, only CYP2C19*1/*1 subjects, Fed, men, mean ± SD, read-out: Cmax): 572 ± 215 ng/mL
Tmax ([1]; male, human, plasma, oral, only CYP2C19*1/*1 subjects, Fed, men, mean ± SD, read-out: Tmax): 10.3 ± 5.1 h
AUC(0-inf) [1, 14]: 836 ± 313 ng·h/mL
CL/F [1, 14]: 5.83 mL/min/kg
Vd/F [1, 14]: 0.55 ± 0.11 L/kg
half-life [1, 14]: 1.2 ± 0.5 h
Cmax ([1]; male, human, plasma, po, Fast, men, single oral dose, mean ± SD, read-out: Cmax): 479 ± 140 ng/mL
Tmax ([1]; male, human, plasma, po, Fast, men, single oral dose, mean ± SD, read-out: Tmax): 3.6 ± 0.9 h
AUC(0-inf) [1, 15]: 1050 ± 361 ng·h/mL
CL/F [1, 15]: 5.17 mL/min/kg
Vd/F [1, 15]: 0.91 ± 0.52 L/kg
half-life [1, 15]: 2.3 ± 1.3 h
Cmax ([1]; male, human, plasma, po, Fed, men, single oral dose, mean ± SD, read-out: Cmax): 635 ± 145 ng/mL
Tmax ([1]; male, human, plasma, po, Fed, men, single oral dose, mean ± SD, read-out: Tmax): 6.9 ± 3 h
Ke ([1]; only CYP2C19*1/*1 subjects, Fast, men and women, mean ± SD): 0.63 ± 0.20
Ke ([1]; only CYP2C19*1/*1 subjects, Fast, men, mean ± SD): 0.57 ± 0.25
Ke ([1]; only CYP2C19*1/*1 subjects, Fast, women, mean ± SD): 0.68 ± 0.13
Ke ([1]; only CYP2C19*1/*1 subjects, Fed, men and women, mean ± SD): 0.45 ± 0.23
Ke ([1]; only CYP2C19*1/*1 subjects, Fed, men, mean ± SD): 0.30 ± 0.11
Ke ([1]; only CYP2C19*1/*1 subjects, Fed, women, mean ± SD): 0.57 ± 0.25
influence of co-ingestion of food on bioavailability [2]: not influenced
